Reference: patent US20250295625A1, “AGENT FOR PROMOTING ODONTOBLAST PROPAGATION AND DIFFERENTIATION” (SUN MEDICAL CO., LTD., priority 2019, published 2025)

Key:
Assay type in all cases: cell-based
[1] = system: human dental pulp stem cell (hDPSC); test: Calcification state of hDPSC culture (alkaline phosphatase measurement, alizarin red S staining); settings: ALPase at 14, 21, 28 days (FIG. 8), alizarin red S at 30 and 32 days (FIGS. 9A, 9B)
Method: When DMEM containing the odontoblast proliferation/differentiation promoting agent of Example 12 and ultrapure water (control) therein was allowed to stand for 14, 21, and 28 days, the calcification state thus obtained was evaluated via alkaline phosphatase (ALPase) measurement.
Further, when DMEM containing the odontoblast proliferation/differentiation promoting agents of Example 12 and Comparative Examples 1 to 4 and ultrapure water (control) therein was allowed to stand for 30 and 32 days, the calcification state thus obtained was evaluated via alizarin red S staining measurement. The evaluation of the calcification state was performed using one-way ANOVA and Tukey's HSD post-hoc test with a significance level set at 1%

[2] = system: MDPC-23 cell (rat dental papilla-derived cell), a rat odontoblast-like cell line; test: Odontoblast proliferation test (CCK-8 assay); settings: FIG. 4
Method: A Dulbecco's modified Eagle's medium (DMEM) added with 5% by mass of fetal bovine serum (FBS) was prepared. Then, an MDPC-23 cell (rat dental papilla-derived cell), which is a rat odontoblast-like cell line, was cultured in DMEM. Subsequently, 0.1 mL of DMEM where the MDPC-23 cells were cultured was injected into each well in a microplate (96 wells) so that 1000 MDPC-23 cells were distributed into each well.
Next, the odontoblast proliferation/differentiation promoting agents of Examples 1 to 10 and ultrapure water (control) were individually added to corresponding wells. Then, the added mixture was allowed to stand at ordinary temperature (25° C.) for 5 days. Thereafter, the proliferation of the MDPC-23 cells was evaluated using a kit for measuring the number of living cells (CCK-8: Cell Counting Kit-8).
In the CCK-8 assay, a microplate reader (measurement wavelength: 450 nm) was used. The CCK-8 assay was repeated 6 times.
The results of the CCK-8 assay in Examples 1 to 5 and the control were shown in FIG. 3 and the results of the CCK-8 assay in Examples 4, 6 to 10 and the control were shown in FIG. 4.

[3] = system: human dental pulp stem cell (hDPSC); test: Differentiation test of human dental pulp stem cells into odontoblasts (real-time PCR); settings: sample 5% by mass, 24 days, FIGS. 7A to 7E; for odontoblast-specific genes (BSP, rOPN, rOCB, rDSPP, and rDMP-1) mRNA expression: β-actin internal standard
Method: A DMEM for culturing hDPSC was prepared in the same manner as in the measurement of cell survival rate. […] The concentration of the sample in each odontoblast proliferation/differentiation promoting agent was 5% by mass. • Calcium salt of […]: […] (Comparative Example 1), • Calcium hydroxide: CH (Comparative Example 2), • Mineral trioxide aggregate: […] As an internal standard, β-actin was used. mRNA expression levels of RNA-bone sialoprotein (BSP) are shown in FIG. 7A. mRNA expression levels of RNA-osteopontin (rOPN) are shown in FIG. 7B. mRNA expression levels of RNA-osteocalcin (rOCN) are shown in FIG. 7C. mRNA expression levels of RNA-dentin sialophosphoprotein (rDSPP) are shown in FIG. 7D. mRNA expression levels of RNA-dentin matrix protein (rDMP-1) are shown in FIG. 7E.

[4] = system: mesenchymal stem cell (MSC); test: Differentiation test of mesenchymal stem cells into odontoblasts (real-time PCR); settings: MSC, 10, 17, and 24 days
Method: A DMEM for culturing mesenchymal stem cell (MSC) was prepared in the same manner as the measurement of cell survival rate, except that hDPSC was replaced with MSC.
Next, the odontoblast proliferation/differentiation promoting agent of Example 12 and ultrapure water (control) were individually dissolved directly in the DMEM for culturing MSC. Then, DMEM was subjected to real-time PCR when allowed to stand for 10, 17, and 24 days. As an internal standard, β-actin was used.
mRNA expression levels of RNA-bone sialoprotein (BSP) are shown in FIG. 8A. mRNA expression levels of RNA-dentin matrix protein (rDMP-1) are shown in FIG. 8B.

C=C(C)C(=O)OCCOC(=O)c1ccc(C(=O)[O-])c(C(=O)[O-])c1.[Ca+2] [C-MET, calcium salt of 4-methacryloyloxyethyltrimellitic acid]
calcification [1]: promoted
effect of promoting proliferation and/or differentiation of the MDPC-23 cells ([2]; as the concentration of C-MET was increased to 500 μg/mL (Example 7)): gradually improved
effect of promoting proliferation and/or differentiation of the MDPC-23 cells ([2]; when the concentration of C-MET exceeded 500 μg/mL): not found any further improvement
differentiation of hDPSC into odontoblasts [3]: promoted
odontoblast-specific genes (BSP, rOPN, rOCB, rDSPP, and rDMP-1) mRNA expression [3]: increased
differentiation of MSC into odontoblasts [4]: promoted
odontoblast-specific genes (BSP, rDMP-1) mRNA expression ([4]; β-actin internal standard): increased

[Ca+2].[OH-].[OH-] [CH, Calcium hydroxide, reference compound]
calcification [1]: calcification was found
differentiation of hDPSC into odontoblasts [3]: not observed
odontoblast-specific genes (BSP, rOPN, rOCB, rDSPP, and rDMP-1) mRNA expression [3]: no increase

[Ca+2].[Cl-].[Cl-] [CaCl2, Calcium chloride]
calcification [1]: calcification was found
